Like-named read-outs stand apart in the source and are kept apart here. Starred links: 1 amine or outer side, 2 acyl side, 3 side chain; linkers in the order of their positions; H or OH if unused. Positions of bridges follow the written chain, without caps; N, C: chain ends. Non-standard residues stand in square brackets, D forms with d. Residues, ends and D or L forms follow the SMILES beside them. No end group written: not given here. ξ: configuration not given here. ξαMeNle(6-ylidene) = CC(CCCC=[*:3])(N[*:1])C(=O)[*:2]; X1 = CC(CCCCCCC=[*:3])(N[*:1])C(=O)[*:2]
Columns and labels:
[1] = tested on: HL-60, promyeloblast (acute myelocytic leukemia, AML); assay: MTT viability assay, HL-60; assay type: cell-based
Protocol: (§1) HL-60, promyeloblast (acute myelocytic leukemia, AML), ECACC: 98070106 […] During the amplification step and the assays adherent cells were rinsed with DPBS (Dulbecco's Phosphate Buffered Saline, Sigma D1283) three times and afterward treated for 5 minutes with trypsin ([…]) (Gibco-BRL, 15400054) in solution of DPBS at 37° C., and, once detached, transferred in the culturing medium. No-adherent cells were centrifuged and transferred in the culturing medium. Cells were counted in a Neubauer chamber after labelling with Tripan-Blue. […] Cells were seeded at a density of 10000 cells/well in 100 μl of medium in 96 well plates. […] Controls are the untreated cells. Each experiment was performed in triplicate. Cells were incubated with the compounds at the indicated concentrations during 24-72 h in incubator under CO2 atmosphere at 37° C. […] Stock solution of MTT (475989 Calbiochem) was 5 mg/ml in PBS. 1×.10 μl/well of MTT solution were added and the plate was incubated for 3-4 hr. […] Plates were incubated for 16 h at room temperature under orbital shaking. Absorbance at 570 nm was finally measured. […] The dose/response curve was fitted through the sigmoidal equation dose-response (variable slope) and the IC50 values were calculated as follow: Y=Bottom+(Top−Bottom)/(1+10^{[(LogIC50−X)*HillSlope]},

[2] = tested on: MCF-7, epithelial (breast cancer); assay type: cell-based
Protocol: as §1, with “MCF-7, epithelial (breast cancer),” for “HL-60, promyeloblast (acute myelocytic leukemia, AML),”, “86012803” for “98070106”

[3] = HL-60, same protocol as Example 2, Table 6, read-out: Compound (IC50)
[4] = MCF7, same protocol as Example 2, Table 6, read-out: Compound (IC50)

Row | IC50 [1] [µM] | IC50 [2] [µM] | Molecule | IC50 [1, 3] [µM] | IC50 [2, 4] [µM] | other results
1 | > 100 | > 100 | RQIKIWFQNRRMKWKKNELKRAFAALRDQI [Int-HI-S6A-F8, reference compound] | – | – | –
2 | > 100 | > 100 | CC[C@H](C)[C@@H]1NC(=O)[C@H](Cc2ccc(O)cc2)NC(=O)[C@H](C)NC(=O)[C@H]([C@@H](C)O)NC(=O)[C@H](C)NC(=O)[C@H](CCCCN)NC(=O)C(C)(NC(=O)[C@H](CC(C)C)NC(=O)[C@@H](NC(=O)[C@@H](NC(=O)[C@@H](NC(=O)[C@H](CCCCN)NC(=O)[C@@H]2CCCN2C(=O)[C@H](C)N)C(C)C)C(C)C)[C@@H](C)CC)CCCCCCC=CCCCC(C)(C(=O)N[C@@H](CO)C(=O)O)NC1=O (stereo partly shown) [IDP-S18, APKVVILXKATAYIXS] (H-APKVVIL[X1]KATAYI[ξαMeNle(6-ylidene)]S-OH; staple 8-15; N-terminus and C-terminus assumed) | – | – | –
3 | > 100 | > 100 | CC[C@H](C)[C@H](NC(=O)C1(C)CCCC=CCCCCCCC(C)(NC(=O)[C@@H](NC(=O)[C@@H](NC(=O)[C@H](CCCCN)NC(=O)[C@@H]2CCCN2C(=O)[C@H](C)N)C(C)C)C(C)C)C(=O)N[C@@H](CC(C)C)C(=O)N[C@@H](CCCCN)C(=O)N[C@@H](CCCCN)C(=O)N[C@@H](C)C(=O)N[C@@H]([C@@H](C)O)C(=O)N[C@@H](C)C(=O)N1)C(=O)N[C@@H](CC(C)C)C(=O)N[C@@H](CO)C(=O)O (stereo partly shown) [IDP-S22, APKVVXLKKATAXILS] (H-APKVV[X1]LKKATA[ξαMeNle(6-ylidene)]ILS-OH; staple 6-13; N-terminus and C-terminus assumed) | – | – | –

The remaining lines, values behind:

Row | Molecule | IC50 [1] [µM] | IC50 [2] [µM] | IC50 [1, 3] [µM] | IC50 [2, 4] [µM] | other results
4 | CCc1ccc(/C=C2/SC(=S)NC2=O)cc1 [10058-F4, reference compound] | – | – | – | – | IC50 ([1]; HL-60, MTT, incubation 24-72 h, Table 3, read-out: IC50 values): 54 ± 2 µM; IC50 ([2]; MCF7, MTT, incubation 24-72 h, Table 3, read-out: IC50 values): ~52 µM
5 | CC[C@H](C)[C@H](NC(=O)[C@H](Cc1ccc(O)cc1)NC(=O)[C@H](C)NC(=O)[C@@H](NC(=O)[C@H](C)NC(=O)C1(C)CCCC=CCCCCCCC(C)(NC(=O)[C@H](C)N)C(=O)N[C@@H](CCCCN)C(=O)N[C@@H](C(C)C)C(=O)N[C@@H](C(C)C)C(=O)N[C@@H]([C@@H](C)CC)C(=O)N[C@@H](CC(C)C)C(=O)N[C@@H](CCCCN)C(=O)N1)[C@@H](C)O)C(=O)N[C@@H](CC(C)C)C(=O)N[C@@H](CO)C(=O)O (stereo partly shown) [IDP-S19, AXKVVILKXATAYILS] (H-A[X1]KVVILK[ξαMeNle(6-ylidene)]ATAYILS-OH; staple 2-9) | – | – | > 100 | > 100 | –
6 | CC[C@H](C)[C@H](NC(=O)[C@H](Cc1ccc(O)cc1)NC(=O)C1(C)CCCC=CCCCCCCC(C)(NC(=O)[C@@H](NC(=O)[C@H](CCCCN)NC(=O)[C@@H]2CCCN2C(=O)[C@H](C)N)C(C)C)C(=O)N[C@@H]([C@@H](C)CC)C(=O)N[C@@H](CC(C)C)C(=O)N[C@@H](CCCCN)C(=O)N[C@@H](CCCCN)C(=O)N[C@@H](C)C(=O)N[C@@H]([C@@H](C)O)C(=O)N1)C(=O)N[C@@H](CC(C)C)C(=O)N[C@@H](CO)C(=O)O (stereo partly shown) [IDP-S21, APKVXILKKATXYILS] (H-APKV[X1]ILKKAT[ξαMeNle(6-ylidene)]YILS-OH; staple 5-12) | – | – | > 100 | > 100 | –
7 | CC[C@H](C)[C@H](NC(=O)[C@@H](NC(=O)[C@@H](NC(=O)[C@H](CCCCN)NC(=O)[C@@H]1CCCN1C(=O)[C@H](C)N)C(C)C)C(C)C)C(=O)NC1(C)CCCCCCC=CCCCC(C)(C(=O)N[C@@H](CC(C)C)C(=O)N[C@@H](CO)C(=O)O)NC(=O)[C@H](Cc2ccc(O)cc2)NC(=O)[C@H](C)NC(=O)[C@H]([C@@H](C)O)NC(=O)[C@H](C)NC(=O)[C@H](CCCCN)NC(=O)[C@H](CCCCN)NC1=O (stereo partly shown) [IDP-S17, APKVVIXKKATAYXLS] (H-APKVVI[X1]KKATAY[ξαMeNle(6-ylidene)]LS-OH; staple 7-14; N-terminus and C-terminus assumed) | > 100 | > 100 | – | – | –
8 | CC[C@H](C)[C@@H]1NC(=O)[C@H](Cc2ccc(O)cc2)NC(=O)[C@H](C)NC(=O)[C@H]([C@@H](C)O)NC(=O)[C@H](C)NC(=O)C(C)(NC(=O)[C@H](CCCCN)NC(=O)[C@H](CC(C)C)NC(=O)[C@@H](NC(=O)[C@@H](NC(=O)[C@@H](NC(=O)[C@H](CCCCN)NC(=O)[C@@H]2CCCN2C(=O)[C@H](C)N)C(C)C)C(C)C)[C@@H](C)CC)CCCCCCC=CCCCC(C)(C(=O)N[C@H](C(=O)O)C(C)C)NC(=O)[C@H](CC(C)C)NC1=O (stereo partly shown) [IDP-S23, APKVVILKXATAYILXV] (H-APKVVILK[X1]ATAYIL[ξαMeNle(6-ylidene)]V-OH; staple 9-16) | – | – | > 100 | > 100 | –
